# Results from ChEMBL document CHEMBL5331051, “Cationic, amphipathic small molecules based on a triazine-piperazine-triazine scaffold as a new class of antimicrobial agents” (Eur J Med Chem, 2022).
# Calls of active or inactive are those of the source. No cut-off for these calls is given here.
# Tests used:
# Pseudomonas aeruginosa [1] = assay: Additive antibacterial activity against multidrug-resistant Pseudomonas aeruginosa CCARM 2095 strain assessed as bacterial growth inhibition in presence of oxacillin by checkerboard assay; format: functional
# Cell membrane [2] = assay: Induction of cell membrane depolarization in Staphylococcus aureus assessed as increase in fluorescence intensity at 2 times MIC by SYTOX green staining based analysis
# Pseudomonas aeruginosa [3] = assay: Additive antibacterial activity against multidrug-resistant Pseudomonas aeruginosa CCARM 2095 strain assessed as ciprofloxacin fractional inhibitory concentration by checkerboard assay; format: functional
# Pseudomonas aeruginosa [4] = assay: Additive antibacterial activity against multidrug-resistant Pseudomonas aeruginosa CCARM 2095 strain assessed as bacterial growth inhibition by checkerboard assay; format: functional
# Pseudomonas aeruginosa [5] = assay: Additive antibacterial activity against multidrug-resistant Pseudomonas aeruginosa CCARM 2095 strain assessed as fractional inhibitory concentration index in presence of ciprofloxacin by checkerboard assay; format: functional
# Pseudomonas aeruginosa [6] = assay: Antibiofilm activity against multidrug-resistant Pseudomonas aeruginosa assessed as biofilm eradication; format: functional
# Staphylococcus aureus [7] = assay: Additive antibacterial activity against multidrug-resistant Staphylococcus aureus CCARM 3089 strain assessed as fractional inhibitory concentration index in presence of ciprofloxacin by checkerboard assay; format: functional
# Cell membrane [8] = assay: Induction of cell membrane depolarization in Staphylococcus aureus assessed as increase in fluorescence intensity at 2 times MIC by DiSC3(5) dye based fluorescence assay
# Pseudomonas aeruginosa [9] = assay: Additive antibacterial activity against multidrug-resistant Pseudomonas aeruginosa CCARM 2095 strain assessed as fractional inhibitory concentration index in presence of oxacillin by checkerboard assay; format: functional
# Pseudomonas aeruginosa [10] = assay: Additive antibacterial activity against multidrug-resistant Pseudomonas aeruginosa CCARM 2095 strain assessed as oxacillin fractional inhibitory concentration by checkerboard assay; format: functional
# Lipopolysaccharide (LPS) [11] = assay: Binding affinity to Escherichia coli O111:B4 lipopolysaccharide assessed as suppression of FTIC labeled LPS binding to mouse RAW264.7 cells at 20 ug/ml pretreated LPS with cells for 1 hr followed by compound addition measured after 1 hr by flow cytometer assay (reference value: 48.12%); format: cell-based; conditions: dose 20.0 µg/ml
# Staphylococcus aureus [12] = assay: Additive antibacterial activity against methicillin-resistant Staphylococcus aureus CCARM 3089 strain assessed as oxacillin MIC by checkerboard assay; format: functional
# Pseudomonas aeruginosa [13] = assay: Additive antibacterial activity against multidrug-resistant Pseudomonas aeruginosa CCARM 2095 strain assessed as bacterial growth inhibition in presence of ciprofloxacin by checkerboard assay; format: functional
# Staphylococcus aureus [14] = assay: Additive antibacterial activity against methicillin-resistant Staphylococcus aureus CCARM 3089 strain assessed as chloramphenicol MIC by checkerboard assay; format: functional
# Pseudomonas aeruginosa [15] = assay: Additive antibacterial activity against multidrug-resistant Pseudomonas aeruginosa CCARM 2095 strain assessed as fractional inhibitory concentration in presence of chloramphenicol by checkerboard assay; format: functional
# Staphylococcus aureus [16] = assay: Additive antibacterial activity against methicillin-resistant Staphylococcus aureus CCARM 3089 strain assessed as ciprofloxacin MIC by checkerboard assay; format: functional
# Lipopolysaccharide (LPS) [17] = assay: Displacement of BODIPY-TR-cadaverine from Escherichia coli O111:B4 lipopolysaccharide assessed as increase in fluorescence at 5 ug/ml by fluorescence based assay; conditions: dose 5.0 µg/ml
# Staphylococcus aureus [18] = assay: Additive antibacterial activity against methicillin-resistant Staphylococcus aureus CCARM 3089 strain assessed as bacterial growth inhibition in presence of oxacillin by checkerboard assay; format: functional
# Pseudomonas aeruginosa [19] = assay: Additive antibacterial activity against multidrug-resistant Pseudomonas aeruginosa CCARM 2095 strain assessed as Oxacillin MIC by checkerboard assay; format: functional
# Staphylococcus aureus [20] = assay: Additive antibacterial activity against methicillin-resistant Staphylococcus aureus CCARM 3089 strain assessed as bacterial growth inhibition in presence of chloramphenicol by checkerboard assay; format: functional
# Pseudomonas aeruginosa [21] = assay: Additive antibacterial activity against multidrug-resistant Pseudomonas aeruginosa CCARM 2095 strain assessed as fractional inhibitory concentration in presence of ciprofloxacin by checkerboard assay; format: functional
# Lipopolysaccharide (LPS) [22] = assay: Binding affinity to Escherichia coli O111:B4 lipopolysaccharide assessed as suppression of FTIC labeled LPS binding to mouse RAW264.7 cells at 20 ug/ml pretreated with LPS followed by compound addition by flow cytometer assay (reference value: 67.4%); format: cell-based; conditions: dose 20.0 µg/ml
# Staphylococcus aureus [23] = assay: Antibacterial activity against methicillin-resistant Staphylococcus aureus CCARM 3089 strain assessed as bacterial growth inhibition by checkerboard assay; format: functional
# Pseudomonas aeruginosa [24] = assay: Additive antibacterial activity against multidrug-resistant Pseudomonas aeruginosa CCARM 2095 strain assessed as fractional inhibitory concentration in presence of oxacillin by checkerboard assay; format: functional
# Staphylococcus aureus [25] = assay: Additive antibacterial activity against methicillin-resistant Staphylococcus aureus CCARM 3089 strain assessed as bacterial growth inhibition in presence of ciprofloxacin by checkerboard assay; format: functional
# Cell membrane [26] = assay: Induction of inner membrane permeabilization in Escherichia coli ML-35 assessed as increase in […] at 2 times MIC by ONPG staining based analysis
# Pseudomonas aeruginosa [27] = assay: Additive antibacterial activity against multidrug-resistant Pseudomonas aeruginosa CCARM 2095 strain assessed as chloramphenicol MIC by checkerboard assay; format: functional
# Staphylococcus aureus [28] = assay: Additive antibacterial activity against multidrug-resistant Staphylococcus aureus CCARM 3089 strain assessed as fractional inhibitory concentration index in presence of chloramphenicol by checkerboard assay; format: functional
# Pseudomonas aeruginosa [29] = assay: Additive antibacterial activity against multidrug-resistant Pseudomonas aeruginosa CCARM 2095 strain assessed as fractional inhibitory concentration index in presence of chloramphenicol by checkerboard assay; format: functional
# Pseudomonas aeruginosa [30] = assay: Additive antibacterial activity against multidrug-resistant Pseudomonas aeruginosa CCARM 2095 strain assessed as ciprofloxacin MIC by checkerboard assay; format: functional
# Cell membrane [31] = assay: Induction of cell membrane depolarization in Staphylococcus aureus assessed as fluorescence intensity at 2 to 16 times MIC by DiSC3(5) dye based fluorescence assay; format: subcellular
# Pseudomonas aeruginosa [32] = assay: Additive antibacterial activity against multidrug-resistant Pseudomonas aeruginosa CCARM 2095 strain assessed as bacterial growth inhibition in presence of chloramphenicol by checkerboard assay; format: functional
# Pseudomonas aeruginosa [33] = assay: Additive antibacterial activity against multidrug-resistant Pseudomonas aeruginosa CCARM 2095 strain assessed as chloramphenicol fractional inhibitory concentration by checkerboard assay; format: functional
# Cell membrane [34] = assay: Induction of outer membrane permeabilization in Escherichia coli KCTC 1682 assessed as increase in fluorescence intensity at 2 to 8 ug/ml by NPN staining based analysis; conditions: dose 2-8 µg/ml
# Pseudomonas aeruginosa [35] = assay: Antibiofilm activity against multidrug-resistant Pseudomonas aeruginosa assessed as inhibition of biofilm formation; format: functional
smiles,measurement,setting,value
CC[C@H](C)[C@H](NC(=O)[C@H](CCCCN)NC(=O)[C@H](CCC(=O)O)NC(=O)[C@H](CCCCN)NC(=O)[C@H](CO)NC(=O)[C@H](CCCCN)NC(=O)[C@H](CCCNC(=N)N)NC(=O)[C@H](Cc1ccccc1)NC(=O)[C@H](Cc1ccccc1)NC(=O)[C@H](CC(=O)O)NC(=O)CNC(=O)[C@H](CC(C)C)NC(=O)[C@@H](N)CC(C)C)C(=O)NCC(=O)N[C@@H](CCCCN)C(=O)N[C@@H](CCC(=O)O)C(=O)N[C@@H](Cc1ccccc1)C(=O)N[C@@H](CCCCN)C(=O)N[C@@H](CCCNC(=N)N)C(=O)N[C@H](C(=O)N[C@H](C(=O)N[C@@H](CCC(N)=O)C(=O)N[C@@H](CCCNC(=N)N)C(=O)N[C@H](C(=O)N[C@@H](CCCCN)C(=O)N[C@@H](CC(=O)O)C(=O)N[C@@H](Cc1ccccc1)C(=O)N[C@@H](CC(C)C)C(=O)N[C@@H](CCCNC(=N)N)C(=O)N[C@@H](CC(N)=O)C(=O)N[C@@H](CC(C)C)C(=O)N[C@H](C(=O)N1CCC[C@H]1C(=O)N[C@@H](CCCNC(=N)N)C(=O)N[C@H](C(=O)N[C@@H](CCC(=O)O)C(=O)N[C@@H](CO)C(=O)O)[C@@H](C)O)C(C)C)[C@@H](C)CC)C(C)C)[C@@H](C)CC [CATHELICIDIN],MIC,Pseudomonas aeruginosa [1],8 µg/mL
same,Activity,Cell membrane [2],Active
same,FIC,Pseudomonas aeruginosa [3],0.25
same,MIC,Pseudomonas aeruginosa [4],32 µg/mL
same,fractional inhibitory concentration index (FICI),Pseudomonas aeruginosa [5],0.75
same,MBEC50,Pseudomonas aeruginosa [6],14.2 µM
same,MBEC90,Pseudomonas aeruginosa [6],28.5 µM
same,fractional inhibitory concentration index (FICI),Staphylococcus aureus [7],0.75
same,Activity,Cell membrane [8],Active
same,fractional inhibitory concentration index (FICI),Pseudomonas aeruginosa [9],0.75
same,FIC,Pseudomonas aeruginosa [10],0.5
same,Flu intensity,Lipopolysaccharide (LPS) [11],18.3%
same,MIC,Staphylococcus aureus [12],256 µg/mL
same,MIC,Pseudomonas aeruginosa [13],16 µg/mL
same,MIC,Staphylococcus aureus [14],64 µg/mL
same,FIC,Pseudomonas aeruginosa [15],0.5
same,MIC,Staphylococcus aureus [16],128 µg/mL
same,Activity,Lipopolysaccharide (LPS) [17],inactive
same,MIC,Staphylococcus aureus [18],32 µg/mL
same,MIC,Pseudomonas aeruginosa [19],512 µg/mL
same,MIC,Staphylococcus aureus [20],32 µg/mL
same,FIC,Pseudomonas aeruginosa [21],0.5
same,Flu intensity,Lipopolysaccharide (LPS) [22],10.4%
same,MIC,Staphylococcus aureus [23],64 µg/mL
same,FIC,Pseudomonas aeruginosa [24],0.25
same,MIC,Staphylococcus aureus [25],32 µg/mL
same,Activity,Cell membrane [26],Active
same,MIC,Pseudomonas aeruginosa [27],512 µg/mL
same,fractional inhibitory concentration index (FICI),Staphylococcus aureus [28],0.675
same,fractional inhibitory concentration index (FICI),Pseudomonas aeruginosa [29],1
same,MIC,Pseudomonas aeruginosa [30],256 µg/mL
same,Activity,Cell membrane [31],inactive
same,MIC,Pseudomonas aeruginosa [32],16 µg/mL
same,FIC,Pseudomonas aeruginosa [33],0.5
same,Activity,Cell membrane [34],Active
same,MBEC50,Pseudomonas aeruginosa [35],14.2 µM
same,MBEC90,Pseudomonas aeruginosa [35],28.5 µM
same,MBIC,Pseudomonas aeruginosa [35],>7 µM
same,MBIC50,Pseudomonas aeruginosa [35],3.6 µM
